Assay results reported in paper PMC6120666 (The EMBO Journal, 2018).

Tests used:
Experiment in all cases: Drug affinity chromatography with c-ponatinib and LC-MS/MS (ponatinib interactome)
Assay type in all cases: binding
[1] = biological target: T1, proteins of U2OS cell lysate (Homo sapiens, UniProt P45880); details: captured protein VDAC2, Rank 163
T1 construct: Proteins enriched by c-ponatinib from U2OS cell lysate; endogenous in cells; host or cells: U2OS cell lysate
Method in brief: (§1)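 U2OS cell lysate in NP-40 lysis buffer (2 mg protein per pulldown) was incubated with amine-derivatized NHS beads for 2 h at 4 °C. Bound proteins were washed, eluted with 100 mM formic acid, reduced, alkylated and trypsin-digested, then identified by nano-UPLC–MS/MS on Orbitrap instruments with a 60 min gradient.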

[2] = biological target: T2, proteins of U2OS cell lysate (Homo sapiens, UniProt P62266); details: captured protein RPS23, Rank 181
T2 construct: Proteins enriched by c-ponatinib from U2OS cell lysate; endogenous in cells; host or cells: U2OS cell lysate
Method in brief: as §1

[3] = biological target: T3, proteins of U2OS cell lysate (Homo sapiens, UniProt Q8WWI1); details: LMO7, LIM domain only protein 7
T3 construct: Proteins enriched by c-ponatinib from U2OS cell lysate; endogenous in cells; host or cells: U2OS cell lysate
Method in brief: as §1

[4] = biological target: T4, proteins of U2OS cell lysate (Homo sapiens, UniProt P15880); details: RPS2, 40S ribosomal protein S2
T4 construct: Proteins enriched by c-ponatinib from U2OS cell lysate; endogenous in cells; host or cells: U2OS cell lysate
Method in brief: as §1

[5] = biological target: T5, proteins of U2OS cell lysate (Homo sapiens, UniProt Q16854); details: DGUOK, Deoxyguanosine kinase, mitochondrial
T5 construct: Proteins enriched by c-ponatinib from U2OS cell lysate; endogenous in cells; host or cells: U2OS cell lysate
T5 sequence (Q16854 40-277): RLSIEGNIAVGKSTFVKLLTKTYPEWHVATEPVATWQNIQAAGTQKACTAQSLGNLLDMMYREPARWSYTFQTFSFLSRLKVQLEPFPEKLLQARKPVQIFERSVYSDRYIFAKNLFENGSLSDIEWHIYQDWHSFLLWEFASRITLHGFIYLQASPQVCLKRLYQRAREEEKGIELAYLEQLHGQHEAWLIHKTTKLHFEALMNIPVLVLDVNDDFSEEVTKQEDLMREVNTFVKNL
Method in brief: as §1

[6] = biological target: T6, proteins of U2OS cell lysate (Homo sapiens, UniProt P16083); details: NQO2, Ribosyldihydronicotinamide dehydrogenase [quinone]
T6 construct: Proteins enriched by c-ponatinib from U2OS cell lysate; endogenous in cells; host or cells: U2OS cell lysate
T6 sequence (P16083 whole entry): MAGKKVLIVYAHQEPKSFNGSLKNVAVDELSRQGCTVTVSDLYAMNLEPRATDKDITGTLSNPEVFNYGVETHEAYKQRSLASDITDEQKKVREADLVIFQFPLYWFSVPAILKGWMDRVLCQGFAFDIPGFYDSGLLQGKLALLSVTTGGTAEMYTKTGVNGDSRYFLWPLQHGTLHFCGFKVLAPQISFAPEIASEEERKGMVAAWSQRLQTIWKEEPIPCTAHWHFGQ
Method in brief: as §1

[7] = biological target: T7, proteins of U2OS cell lysate (Homo sapiens, UniProt Q01650); details: SLC7A5, Large neutral amino acids transporter small subunit 1
T7 construct: Proteins enriched by c-ponatinib from U2OS cell lysate; endogenous in cells; host or cells: U2OS cell lysate
T7 sequence (Q01650 whole entry): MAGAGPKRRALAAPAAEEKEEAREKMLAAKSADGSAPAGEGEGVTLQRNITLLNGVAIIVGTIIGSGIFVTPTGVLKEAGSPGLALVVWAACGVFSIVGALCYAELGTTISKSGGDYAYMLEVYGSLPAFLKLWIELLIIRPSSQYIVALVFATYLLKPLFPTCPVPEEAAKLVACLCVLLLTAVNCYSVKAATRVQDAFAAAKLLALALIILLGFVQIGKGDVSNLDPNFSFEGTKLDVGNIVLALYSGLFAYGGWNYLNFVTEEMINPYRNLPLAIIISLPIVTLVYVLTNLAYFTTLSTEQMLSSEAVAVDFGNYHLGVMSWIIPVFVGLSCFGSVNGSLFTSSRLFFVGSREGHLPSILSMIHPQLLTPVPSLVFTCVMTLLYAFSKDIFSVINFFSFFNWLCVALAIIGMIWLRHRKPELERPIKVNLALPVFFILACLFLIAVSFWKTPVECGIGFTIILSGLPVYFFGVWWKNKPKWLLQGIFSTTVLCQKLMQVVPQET
Method in brief: as §1

[8] = biological target: T8, proteins of U2OS cell lysate (Homo sapiens, UniProt P26640); details: VARS, Valine--tRNA ligase
T8 construct: Proteins enriched by c-ponatinib from U2OS cell lysate; endogenous in cells; host or cells: U2OS cell lysate
T8 sequence (P26640 whole entry): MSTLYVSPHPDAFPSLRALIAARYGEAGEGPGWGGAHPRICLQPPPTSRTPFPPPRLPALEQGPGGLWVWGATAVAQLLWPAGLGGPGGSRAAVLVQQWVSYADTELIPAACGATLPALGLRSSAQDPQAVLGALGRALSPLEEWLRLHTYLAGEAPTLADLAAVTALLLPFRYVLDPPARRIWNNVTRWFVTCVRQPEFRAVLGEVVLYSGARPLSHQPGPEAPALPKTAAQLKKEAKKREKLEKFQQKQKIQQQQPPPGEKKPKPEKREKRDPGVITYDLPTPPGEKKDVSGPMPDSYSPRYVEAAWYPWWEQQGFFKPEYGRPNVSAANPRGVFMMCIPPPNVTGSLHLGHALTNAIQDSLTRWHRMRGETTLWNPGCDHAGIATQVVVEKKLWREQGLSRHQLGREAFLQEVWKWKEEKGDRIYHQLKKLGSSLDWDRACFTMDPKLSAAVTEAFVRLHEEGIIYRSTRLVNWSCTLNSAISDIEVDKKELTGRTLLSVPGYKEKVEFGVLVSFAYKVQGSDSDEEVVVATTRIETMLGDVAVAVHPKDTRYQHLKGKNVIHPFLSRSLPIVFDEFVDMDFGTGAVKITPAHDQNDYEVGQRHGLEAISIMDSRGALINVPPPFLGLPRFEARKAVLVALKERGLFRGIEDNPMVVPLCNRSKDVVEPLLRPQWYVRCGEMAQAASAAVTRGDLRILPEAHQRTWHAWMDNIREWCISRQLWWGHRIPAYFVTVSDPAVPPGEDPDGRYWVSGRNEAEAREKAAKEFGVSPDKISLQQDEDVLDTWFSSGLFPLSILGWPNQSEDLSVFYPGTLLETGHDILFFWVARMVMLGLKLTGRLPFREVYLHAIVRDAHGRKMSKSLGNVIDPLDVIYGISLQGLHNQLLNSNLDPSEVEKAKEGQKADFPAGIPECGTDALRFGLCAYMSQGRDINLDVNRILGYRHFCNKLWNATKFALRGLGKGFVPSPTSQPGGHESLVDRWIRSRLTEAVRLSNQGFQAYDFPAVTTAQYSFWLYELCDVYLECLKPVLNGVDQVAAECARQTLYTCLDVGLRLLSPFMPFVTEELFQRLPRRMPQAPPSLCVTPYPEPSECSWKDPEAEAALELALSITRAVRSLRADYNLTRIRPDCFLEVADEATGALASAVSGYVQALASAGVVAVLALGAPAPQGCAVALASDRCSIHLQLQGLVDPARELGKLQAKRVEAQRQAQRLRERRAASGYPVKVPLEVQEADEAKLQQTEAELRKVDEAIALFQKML
Method in brief: as §1

[9] = biological target: T9, proteins of U2OS cell lysate (Homo sapiens, UniProt P11021); details: HSPA5, 78 kDa glucose-regulated protein
T9 construct: Proteins enriched by c-ponatinib from U2OS cell lysate; endogenous in cells; host or cells: U2OS cell lysate
Method in brief: as §1

[10] = biological target: T10, proteins of U2OS cell lysate (Homo sapiens, UniProt Q12851); details: MAP4K2, Mitogen-activated protein kinase kinase kinase kinase 2
T10 construct: Proteins enriched by c-ponatinib from U2OS cell lysate; endogenous in cells; host or cells: U2OS cell lysate
Method in brief: as §1

[11] = biological target: T11, proteins of U2OS cell lysate (Homo sapiens, UniProt P29692); details: EEF1D, Elongation factor 1-delta
T11 construct: Proteins enriched by c-ponatinib from U2OS cell lysate; endogenous in cells; host or cells: U2OS cell lysate
T11 sequence (P29692 whole entry): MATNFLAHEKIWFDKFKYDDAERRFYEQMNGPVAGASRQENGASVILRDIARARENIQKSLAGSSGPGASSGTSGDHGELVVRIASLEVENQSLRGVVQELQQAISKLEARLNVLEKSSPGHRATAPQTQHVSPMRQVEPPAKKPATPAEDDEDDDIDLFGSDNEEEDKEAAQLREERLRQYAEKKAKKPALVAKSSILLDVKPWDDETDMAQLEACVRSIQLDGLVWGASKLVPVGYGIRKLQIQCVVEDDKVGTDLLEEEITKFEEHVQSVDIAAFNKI
Method in brief: as §1

[12] = biological target: T12, proteins of U2OS cell lysate (Homo sapiens, UniProt P09669); details: COX6C, Cytochrome c oxidase subunit 6C
T12 construct: Proteins enriched by c-ponatinib from U2OS cell lysate; endogenous in cells; host or cells: U2OS cell lysate
T12 sequence (P09669 whole entry): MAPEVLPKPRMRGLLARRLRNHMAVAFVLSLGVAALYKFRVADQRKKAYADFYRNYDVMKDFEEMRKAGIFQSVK
Method in brief: as §1

[13] = biological target: T13, proteins of U2OS cell lysate (Homo sapiens, UniProt P36542); details: ATP5C1, ATP synthase subunit gamma, mitochondrial
T13 construct: Proteins enriched by c-ponatinib from U2OS cell lysate; endogenous in cells; host or cells: U2OS cell lysate
Method in brief: as §1

[14] = biological target: T14, proteins of U2OS cell lysate (Homo sapiens, UniProt P20700); details: LMNB1, Lamin-B1
T14 construct: Proteins enriched by c-ponatinib from U2OS cell lysate; endogenous in cells; host or cells: U2OS cell lysate
T14 sequence (P20700 whole entry): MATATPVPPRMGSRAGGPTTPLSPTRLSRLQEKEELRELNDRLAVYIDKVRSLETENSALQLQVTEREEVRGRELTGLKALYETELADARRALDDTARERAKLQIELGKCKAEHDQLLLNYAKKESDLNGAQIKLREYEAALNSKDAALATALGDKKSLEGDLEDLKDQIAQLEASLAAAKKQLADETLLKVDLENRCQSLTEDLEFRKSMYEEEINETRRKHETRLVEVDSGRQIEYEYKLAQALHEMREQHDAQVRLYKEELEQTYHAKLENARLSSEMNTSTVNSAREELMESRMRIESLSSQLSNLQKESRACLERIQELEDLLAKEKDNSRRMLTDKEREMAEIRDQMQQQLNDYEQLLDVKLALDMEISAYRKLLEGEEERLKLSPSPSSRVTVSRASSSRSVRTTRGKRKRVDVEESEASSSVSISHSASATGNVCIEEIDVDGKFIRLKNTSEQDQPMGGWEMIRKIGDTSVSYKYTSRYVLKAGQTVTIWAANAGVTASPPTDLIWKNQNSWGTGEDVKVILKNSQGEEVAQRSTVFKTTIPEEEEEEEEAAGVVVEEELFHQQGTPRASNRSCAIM
Method in brief: as §1

[15] = biological target: T15, proteins of U2OS cell lysate (Homo sapiens, UniProt P62906); details: RPL10A, 60S ribosomal protein L10a
T15 construct: Proteins enriched by c-ponatinib from U2OS cell lysate; endogenous in cells; host or cells: U2OS cell lysate
Method in brief: as §1

[16] = biological target: T16, proteins of U2OS cell lysate (Homo sapiens, UniProt Q9P2E9); details: RRBP1, Ribosome-binding protein 1
T16 construct: Proteins enriched by c-ponatinib from U2OS cell lysate; endogenous in cells; host or cells: U2OS cell lysate
T16 sequence (Q9P2E9 whole entry): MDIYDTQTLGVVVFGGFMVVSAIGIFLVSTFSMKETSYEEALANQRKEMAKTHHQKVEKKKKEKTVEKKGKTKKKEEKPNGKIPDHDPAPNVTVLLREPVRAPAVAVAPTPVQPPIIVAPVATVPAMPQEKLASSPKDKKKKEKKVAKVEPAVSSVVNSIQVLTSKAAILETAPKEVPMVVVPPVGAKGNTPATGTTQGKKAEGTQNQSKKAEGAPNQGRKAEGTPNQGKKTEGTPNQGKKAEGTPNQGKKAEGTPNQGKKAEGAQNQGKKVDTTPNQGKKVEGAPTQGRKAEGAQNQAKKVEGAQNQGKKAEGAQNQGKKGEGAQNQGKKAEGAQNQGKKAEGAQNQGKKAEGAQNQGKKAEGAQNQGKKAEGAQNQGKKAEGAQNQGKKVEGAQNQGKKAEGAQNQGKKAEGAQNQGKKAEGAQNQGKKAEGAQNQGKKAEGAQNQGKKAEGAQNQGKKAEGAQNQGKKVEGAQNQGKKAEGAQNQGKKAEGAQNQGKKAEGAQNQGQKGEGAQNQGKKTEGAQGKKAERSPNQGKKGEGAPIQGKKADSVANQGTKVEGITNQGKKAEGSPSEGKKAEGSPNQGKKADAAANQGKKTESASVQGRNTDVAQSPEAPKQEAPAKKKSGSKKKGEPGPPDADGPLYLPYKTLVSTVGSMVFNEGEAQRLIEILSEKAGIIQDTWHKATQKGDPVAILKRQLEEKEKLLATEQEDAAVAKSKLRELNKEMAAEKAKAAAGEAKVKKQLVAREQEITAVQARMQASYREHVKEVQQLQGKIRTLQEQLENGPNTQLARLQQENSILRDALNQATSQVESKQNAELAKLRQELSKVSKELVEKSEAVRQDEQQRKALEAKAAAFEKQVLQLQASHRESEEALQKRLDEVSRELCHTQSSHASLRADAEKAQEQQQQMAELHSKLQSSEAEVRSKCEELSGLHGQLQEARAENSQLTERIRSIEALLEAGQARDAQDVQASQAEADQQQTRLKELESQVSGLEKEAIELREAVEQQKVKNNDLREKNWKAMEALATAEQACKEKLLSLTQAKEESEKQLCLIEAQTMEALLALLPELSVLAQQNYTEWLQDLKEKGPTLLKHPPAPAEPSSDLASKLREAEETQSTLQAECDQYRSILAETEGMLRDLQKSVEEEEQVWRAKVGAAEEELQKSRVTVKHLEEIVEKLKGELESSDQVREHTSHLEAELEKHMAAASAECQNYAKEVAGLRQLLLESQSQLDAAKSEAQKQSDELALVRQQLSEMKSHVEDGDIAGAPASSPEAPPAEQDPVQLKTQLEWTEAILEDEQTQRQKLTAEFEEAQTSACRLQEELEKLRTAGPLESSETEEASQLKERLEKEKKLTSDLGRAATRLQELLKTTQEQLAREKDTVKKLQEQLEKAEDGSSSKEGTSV
Method in brief: as §1

[17] = biological target: T17, proteins of U2OS cell lysate (Homo sapiens, UniProt P39019); details: RPS19, 40S ribosomal protein S19
T17 construct: Proteins enriched by c-ponatinib from U2OS cell lysate; endogenous in cells; host or cells: U2OS cell lysate
Method in brief: as §1

[18] = biological target: T18, proteins of U2OS cell lysate (Homo sapiens, UniProt P57678); details: GEMIN4, Gem-associated protein 4
T18 construct: Proteins enriched by c-ponatinib from U2OS cell lysate; endogenous in cells; host or cells: U2OS cell lysate
Method in brief: as §1

[19] = biological target: T19, proteins of U2OS cell lysate (Homo sapiens, UniProt P23284); details: PPIB, Peptidyl-prolyl cis-trans isomerase B
T19 construct: Proteins enriched by c-ponatinib from U2OS cell lysate; endogenous in cells; host or cells: U2OS cell lysate
T19 sequence (P23284 34-216): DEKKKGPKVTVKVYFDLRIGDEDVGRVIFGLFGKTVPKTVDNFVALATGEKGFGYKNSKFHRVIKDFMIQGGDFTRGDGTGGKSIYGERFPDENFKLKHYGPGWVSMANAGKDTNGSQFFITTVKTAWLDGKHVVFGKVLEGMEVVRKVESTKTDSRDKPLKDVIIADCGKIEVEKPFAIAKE
Method in brief: as §1

| SMILES | Average LFQ intensity [1] | Average LFQ intensity [2] | Average LFQ PON_WT [3] | Average LFQ PON_WT [4] | Average LFQ PON_WT [5] | Average LFQ PON_WT [6] | Average LFQ PON_WT [7] | Average LFQ PON_WT [8] | Average LFQ PON_WT [9] | Average LFQ PON_WT [10] | Average LFQ PON_WT [11] | Average LFQ PON_WT [12] | Average LFQ PON_WT [13] | Average LFQ PON_WT [14] | Average LFQ PON_WT [15] | Average LFQ PON_WT [16] | Average LFQ PON_WT [17] | Average LFQ PON_WT [18] | Average LFQ PON_WT [19] |
| --- | --- | --- | --- | --- | --- | --- | --- | --- | --- | --- | --- | --- | --- | --- | --- | --- | --- | --- | --- |
| Cc1ccc(C(=O)Nc2ccc(CN3CCN(CCCN)CC3)c(C(F)(F)F)c2)cc1C#Cc1cnc2cccnn12 [c-ponatinib, reference compound] | 22.3592 | 22.1736 |  |  |  |  |  |  |  |  |  |  |  |  |  |  |  |  |  |
| Cc1ccc(C(=O)Nc2ccc(CN3CCN(C)CC3)c(C(F)(F)F)c2)cc1C#Cc1cnc2cccnn12 [PON] |  |  | 20.1594 | 20.865 | 23.2666 | 24.6177 | 21.4059 | 20.4235 | 23.5505 | 27.1188 | 24.6531 | 20.8234 | 21.058 | 25.3205 | 19.7018 | 20.1458 | 21.4728 | 20.1071 | 20.4971 |
